Source: patent US10011595B2 (Merck Sharp & Dohme Corp., priority 2014, dated 2018)

Each compound was assayed against human orexin-2 receptor (Homo sapiens (Human), UniProt O43614) (assay: FLIPR Ca2+ Flux Assay, orexin-2 receptor). Conditions: CHO cells expressing the human orexin-2 receptor; agonist 70 pM Ala-6,12 orexin-A; read-out: hOX2R FLIPR IC50.
Sequence of human orexin-2 receptor (O43614 whole entry): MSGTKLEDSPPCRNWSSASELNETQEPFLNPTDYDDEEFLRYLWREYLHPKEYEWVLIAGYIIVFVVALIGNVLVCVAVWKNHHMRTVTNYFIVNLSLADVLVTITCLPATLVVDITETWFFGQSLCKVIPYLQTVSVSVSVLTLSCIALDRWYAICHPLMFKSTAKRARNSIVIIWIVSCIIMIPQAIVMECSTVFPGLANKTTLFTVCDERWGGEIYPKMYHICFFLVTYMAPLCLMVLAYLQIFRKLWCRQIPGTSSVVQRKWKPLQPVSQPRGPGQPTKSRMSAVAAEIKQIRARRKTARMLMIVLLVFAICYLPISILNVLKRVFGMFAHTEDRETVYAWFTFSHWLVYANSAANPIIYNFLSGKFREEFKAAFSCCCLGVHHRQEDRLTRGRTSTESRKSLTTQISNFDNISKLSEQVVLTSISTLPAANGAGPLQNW
Format: cell-based
Description: In a typical experiment the OX1 and OX2 receptor antagonistic activity of the compounds of the present invention was determined in accordance with the following experimental method. For intracellular calcium measurements, Chinese hamster ovary (CHO) cells expressing the rat orexin-1 receptor or the human orexin-2 receptor, are grown in Iscove's modified DMEM containing 2 mM L-glutamine, […], 1% hypoxanthine-thymidine supplement, 100 U/ml penicillin, 100 μg/ml streptomycin and 10% heat-inactivated fetal calf serum (FCS). The cells are seeded at 20,000 cells/well into Becton-Dickinson black 384-well clear bottom sterile plates coated with poly-D-lysine. All reagents were from GIBCO-Invitrogen Corp. The seeded plates are incubated overnight at 37° C. and 5% CO2. Ala-6,12 human orexin-A as the agonist is prepared as a 1 mM stock solution in 1% bovine serum albumin (BSA) and diluted in assay buffer (HBSS containing 20 mM HEPES, 0.1% BSA and 2.5 mM probenecid, pH7.4) for use in the assay at a final concentration of 70 pM. Test compounds are prepared as 10 mM stock solution in DMSO, then diluted in 384-well plates, first in DMSO, then assay buffer. On the day of the assay, cells are washed 3 times with 100 μl assay buffer and then incubated for 60 min (37° C., 5% CO2) in 60 μl assay buffer containing 1 μM Fluo-4AM ester, 0.02% pluronic acid, and 1% BSA. The dye loading solution is then aspirated and cells are washed 3 times with 100 μl assay buffer. 30 μl of that same buffer is left in each well. Within the Fluorescent Imaging Plate Reader (FLIPR, Molecular Devices), test compounds are added to the plate in a volume of 25 μl, incubated for 5 min and finally 25 μl of agonist is added. Fluorescence is measured for each well at 1 second intervals for 5 minutes and the height of each fluorescence peak is compared to the height of the fluorescence peak induced by 70 pM Ala-6,12 orexin-A with buffer in place of antagonist. For each antagonist, IC50 value (the concentration of compound needed to inhibit 50% of the agonist response) is determined. Alternatively, compound potency can be assessed by a radioligand binding assay (described in Bergman et. al. Bioorg. Med. Chem. Lett. 2008, 18, 1425-1430) in which the inhibition constant (Ki) is determined in membranes prepared from CHO cells expressing either the OX1 or OX2 receptor. The intrinsic orexin receptor antagonist activity of a compound which may be used in the present invention may be determined by these assays.
CCN(CCN(CC)c1nc(C)cc(C)n1)C(=O)c1ccccc1-n1nccn1 [Example C-1, N-(2-((4,6-dimethylpyrimidin-2-yl)(ethyl)amino)ethyl)-N-ethyl-2-(2H-H-1,2,3-triazol-2-yl)benzamide] gave an IC50 of 36.6 nM. For CCN(CCN(CC(F)F)c1nc(C)cc(C)n1)C(=O)c1ccccc1-n1nccn1 [Example D-1, N-(2-((2,2-difluoroethyl)(4,6-dimethylpyrimidin-2-yl)amino)ethyl)-N-ethyl-2-(2H-1,2,3-triazol-2-yl)benzamide], the IC50 was 56.1 nM. CCN(CCN(C)c1cc(C#N)ccn1)C(=O)c1ccccc1-n1nccn1 [Example E-1, N-(2-((4-cyanopyridin-2-yl)(methyl)amino)ethyl)-N-ethyl-2-(2H-1,2,3-triazol-2-yl)benzamide] showed an IC50 of 14.5 nM. Compound CCN(CCN(C)c1nccc(C#N)c1C)C(=O)c1ccccc1-n1nccn1 [Example E-7, N-(2-((4-cyano-3-methylpyridin-2-yl)(methyl)amino)ethyl)-N-ethyl-2-(2H-1,2,3-triazol-2-yl)benzamide] has an IC50 of 198 nM. For CCN(CCN(C)c1nccc(C#N)c1Cl)C(=O)c1ccccc1-n1nccn1 [Example E-8, N-{2-[(3-chloro-4-cyanopyridin-2-yl)(methyl)amino]ethyl}-N-ethyl-2-(2H-1,2,3-triazol-2-yl)benzamide], the IC50 was 110 nM. CCN(CCN(C)c1nc(OC)cc(OC)n1)C(=O)c1ccccc1-n1nccn1 [Example E-9, N-{2-[(4,6-dimethoxypyrimidin-2-yl)(methyl)amino]ethyl}-N-ethyl-2-(2H-1,2,3-triazol-2-yl)benzamide] showed an IC50 of 341 nM. For CCN(CCN(C)c1nccc(C#N)n1)C(=O)c1ccccc1-n1nccn1 [Example E-10, N-{2-[(4-cyanopyrimidin-2-yl)(methyl)amino]ethyl}-N-ethyl-2-(2H-1,2,3-triazol-2-yl)benzamide], the IC50 was 244 nM. With CCN(CCN(C)c1nc(Cl)cc(N(C)C)n1)C(=O)c1ccccc1-n1nccn1 [Example E-11, N-(2-{[4-chloro-6-(dimethylamino)pyrimidin-2-yl](methyl)amino}ethyl)-N-ethyl-2-(2H-1,2,3-triazol-2-yl)benzamide] the IC50 was 18.4 nM. Compound CCN(CCN(C)c1cccc(C#N)n1)C(=O)c1ccccc1-n1nccn1 [Example E-14, N-{2-[(6-cyanopyridin-2-yl)(methyl)amino]ethyl}-N-ethyl-2-(2H-1,2,3-triazol-2-yl)benzamide] has an IC50 of 569 nM. CCN(CCN(C)c1ncc(Cl)c(C(F)(F)F)n1)C(=O)c1ccccc1-n1nccn1 [Example E-16, N-(2-{[5-chloro-4-(trifluoromethyl)pyrimidin-2-yl](methyl)amino}ethyl)-N-ethyl-2-(2H-1,2,3-triazol-2-yl)benzamide] showed an IC50 of 84.7 nM. Compound CCN(CCN(C)c1cccc(C#N)n1)C(=O)c1ccccc1-n1nccn1 [Example E-22, N-{2-[(6-cyanopyridin-2-yl)(methyl)amino]ethyl}-N-ethyl-2-(2H-1,2,3-triazol-2-yl)benzamide] has an IC50 of 569 nM. For CCN(CCN(C)c1cc(C#N)ccn1)C(=O)c1ccccc1OC(F)(F)F [Example F-1, {2-[(4-cyanopyridin-2-yl)(methyl)amino]ethyl}-N-ethyl-2-(trifluoromethoxy)benzamide], the IC50 was 58.2 nM. With CCN(CCN(C)c1cc(C#N)ccn1)C(=O)c1ccccc1-c1nnn[nH]1 [Example F-5, N-{2-[(4-cyanopyridin-2-yl)(methyl)amino]ethyl}-N-ethyl-2-(1H-tetrazol-5-yl)benzamide] the IC50 was 10000 nM. CCN(CCN(C)c1cc(C#N)ccn1)C(=O)c1cccnc1OCc1ccccc1 [Example F-6, 2-(benzyloxy)-N-{2-[(4-cyanopyridin-2-yl)(methyl)amino]ethyl}-N-ethylpyridine-3-carboxamide] was tested, and the IC50 was 97.9 nM. CCN(CCN(C)c1cc(C#N)ccn1)C(=O)c1cccnc1Oc1ccccc1 [Example F-7, N-{2-[(4-cyanopyridin-2-yl)(methyl)amino]ethyl}-N-ethyl-2-phenoxypyridine-3-carboxamide] showed an IC50 of 10000 nM. CCN(CCN(C)c1cc(C#N)ccn1)C(=O)c1cccnc1C(F)(F)F [Example F-8, N-{2-[(4-cyanopyridin-2-yl)(methyl)amino]ethyl}-N-ethyl-2-(trifluoromethyl)pyridine-3-carboxamide] showed an IC50 of 1990 nM. CCN(CCN(C)c1cc(C#N)ccn1)C(=O)c1ccccc1-n1ccnc1 [Example F-9, N-{2-[(4-cyanopyridin-2-yl)(methyl)amino]ethyl}-N-ethyl-2-(1H-imidazol-1-yl)benzamide] showed an IC50 of 10000 nM. For CCN(CCN(C)c1cc(C#N)ccn1)C(=O)c1ccccc1C1(C#N)CCOCC1 [Example F-10, N-{2-[(4-cyanopyridin-2-yl)(methyl)amino]ethyl}-2-(4-cyanotetrahydro-2H-pyran-4-yl)-N-ethylbenzamide], the IC50 was 7200 nM. Work on CCN(CCN(C)c1cc(C#N)ccn1)C(=O)c1ccccc1-c1cnccn1 [Example F-11, N-{2-[(4-cyanopyridin-2-yl)(methyl)amino]ethyl}-N-ethyl-2-pyrazin-2-ylbenzamide] yielded an IC50 of 23 nM. In the case of CCN(CCN(C)c1cc(C#N)ccn1)C(=O)c1ccccc1-n1cccn1 [Example F-12, N-{2-[(4-cyanopyridin-2-yl)(methyl)amino]ethyl}-N-ethyl-2-(1H-pyrazol-1-yl)benzamide], the IC50 is reported as 49.6 nM. CCN(CCN(C)c1cc(C#N)ccn1)C(=O)c1ccccc1OCCF [Example F-13, N-{2-[(4-cyanopyridin-2-yl)(methyl)amino]ethyl}-N-ethyl-2-(2-fluoroethoxy)benzamide] gave an IC50 of 48.4 nM. CCN(CCN(C)c1cc(C#N)ccn1)C(=O)c1ccccc1OCC(F)(F)F [Example F-14, N-{2-[(4-cyanopyridin-2-yl)(methyl)amino]ethyl}-N-ethyl-2-(2,2,2-trifluoroethoxy)benzamide] showed an IC50 of 77.4 nM. For CCN(CCN(C)c1cc(C#N)ccn1)C(=O)c1c(F)cccc1-n1nccn1 [Example F-15, N-{2-[(4-cyanopyridin-2-yl)(methyl)amino]ethyl}-N-ethyl-2-fluoro-6-(2H-1,2,3-triazol-2-yl)benzamide], the IC50 was 33.9 nM. CCN(CCN(C)c1cc(C#N)ccn1)C(=O)c1ccccc1COC [Example F-16, N-{2-[(4-cyanopyridin-2-yl)(methyl)amino]ethyl}-N-ethyl-2-(methoxymethyl)benzamide] gave an IC50 of 688 nM. Work on CCN(CCN(C)c1cc(C#N)ccn1)C(=O)c1c(F)cccc1-n1ccnn1 [Example F-17, N-{2-[(4-cyanopyridin-2-yl)(methyl)amino]ethyl}-N-ethyl-2-fluoro-6-(1H-1,2,3-triazol-1-yl)benzamide] yielded an IC50 of 945 nM. CCN(CCN(C)c1cc(C#N)ccn1)C(=O)c1cccc2[nH]c(=O)oc12 [Example F-18, N-{2-[(4-cyanopyridin-2-yl)(methyl)amino]ethyl}-N-ethyl-2-oxo-2,3-dihydro-1,3-benzoxazole-7-carboxamide] was tested, and the IC50 was 10000 nM. Work on CCOc1nc2cccc(C(=O)N(CC)CCN(C)c3cc(C#N)ccn3)c2[nH]1 [Example F-19, N-{2-[(4-cyanopyridin-2-yl)(methyl)amino]ethyl}-2-ethoxy-N-ethyl-1H-benzimidazole-7-carboxamide] yielded an IC50 of 10000 nM. CCN(CCN(C)c1cc(C#N)ccn1)C(=O)c1cc(C)ccc1-n1nccn1 [Example F-20, N-{2-[(4-cyanopyridin-2-yl)(methyl)amino]ethyl}-N-ethyl-5-methyl-2-(2H-1,2,3-triazol-2-yl)benzamide] showed an IC50 of 16.2 nM. CCN(CCN(C)c1cc(C#N)ccn1)C(=O)c1ccccc1-n1cc(C)nn1 [Example F-21, N-{2-[(4-cyanopyridin-2-yl)(methyl)amino]ethyl}-N-ethyl-2-(4-methyl-1H-1,2,3-triazol-1-yl)benzamide] gave an IC50 of 341 nM. CCN(CCN(C)c1cc(C#N)ccn1)C(=O)c1ccccc1N1CCCC1 [Example F-22, N-{2-[(4-cyanopyridin-2-yl)(methyl)amino]ethyl}-N-ethyl-2-pyrrolidin-1-ylbenzamide] was tested, and the IC50 was 31.8 nM. CCN(CCN(C)c1cc(C#N)ccn1)C(=O)c1cccc2oc(=O)[nH]c12 [Example F-23, N-{2-[(4-cyanopyridin-2-yl)(methyl)amino]ethyl}-N-ethyl-2-oxo-2,3-dihydro-1,3-benzoxazole-4-carboxamide] showed an IC50 of 10000 nM. CCN(CCN(C)c1cc(C#N)ccn1)C(=O)c1ccccc1-c1ncc[nH]1 [Example F-24, N-{2-[(4-cyanopyridin-2-yl)(methyl)amino]ethyl}-N-ethyl-2-(1H-imidazol-2-yl)benzamide] showed an IC50 of 1630 nM.
